Data reported in PubChem BioAssay AID179 (DTP/NCI, 2004).
The source made the active and inactive calls.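 The calls were made as follows: active = compounds giving half or more protection of infected cells from virus-caused growth loss, again on retest; inactive = the rest.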

System: CEM cells HIV-1 protection, formazan growth assay
Assay: NCI AIDS Antiviral Assay
Conditions: for IC50: measured here: growth of uninfected CEM cells
How it was run: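 Protection of CEM cells against HIV-1 measured as cell growth via soluble formazan read-out, with five concentrations tested on both infected and uninfected cells; failure to protect may reflect toxicity.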

## Cn1cc(NC(=O)c2cc(NC(=O)CCCCCC(=O)Nc3cc(C(=O)Nc4cc(C(=O)NCCC(=N)N)n(C)c4)n(C)c3)cn2C)cc1C(=O)NCCC(=N)N
  EC50: 53.7 µM
  IC50: 67.6 µM

## CC1=C2C(=O)NN=C2CCN1c1ccc(Br)cc1
  EC50: > 200 µM
  IC50: 34.7 µM

## COC1CCN(N(C)C)O1 (configuration not stated)
  EC50: > 200 µM
  IC50: > 200 µM

## Nc1nc(Cl)c(N)c(NCC2(CO)CC(Cc3ccccc3)C2)n1 (configuration not stated)
  EC50: > 200 µM
  IC50: 19.5 µM

## CC(NC(=O)CNP(=O)(c1ccccc1)c1ccccc1)C(=O)NC(Cc1ccccc1)C(=O)OCc1ccccc1 (configuration not stated)
  EC50: > 200 µM
  IC50: 20.4 µM

## COC(=O)[C@@H]1CN(C(=O)CCc2ccccc2)C(=O)N1C(=O)OCc1ccccc1
  EC50: > 200 µM
  IC50: 97.7 µM

## O=C(O)[C@H]1[C@@H](C2CCCCC2)O[C@@H](C2CCCCC2)O[C@H]1C(F)(F)F
  EC50: > 200 µM
  IC50: 191 µM

## Cc1cc2c(c(S(=O)(=O)c3ccc(Cl)cc3[N+](=O)[O-])c1)NCCC2
  EC50: > 75.9 µM
  IC50: 27.5 µM

## O/N=C1\CSc2ccccc2C1
  EC50: > 200 µM
  IC50: > 200 µM

## CC1(C)N=C(/C=N/O)C(C)(C)N1O
  EC50: > 200 µM
  IC50: > 200 µM

## CCOC(=O)/C(C(=S)Nc1ccccc1)=C(/N)N1CCCC1
  EC50: > 200 µM
  IC50: 53.7 µM

## S=c1[nH]ccs1
  EC50: > 200 µM
  IC50: > 200 µM

## O=[N+]([O-])c1ccc(S(=O)(=O)n2c3ccc(Br)cc3c3nc4ccccc4nc32)cc1
  EC50: > 100 µM
  IC50: > 100 µM

## O=C1/C(=C(/Br)I)c2ccccc2-c2ccccc21
  EC50: > 200 µM
  IC50: 8.32 µM

## O=C(/C=C/c1ccc(O)c(O)c1)O[C@H]1CCCC[C@@H]1OC(=O)/C=C/c1ccc(O)c(O)c1
  EC50: > 100 µM
  IC50: 5.75 µM

## O=C(CC(=O)N(C(=O)/C=C\c1ccccc1)c1ccc(Cl)cc1)N1N=C(c2ccccc2)C(N=Nc2cccc([N+](=O)[O-])c2)C1=O (configuration not stated)
  EC50: > 200 µM
  IC50: 3.55 µM

## O=S(=O)(C1=CC(S(=O)(=O)c2ccccc2)CN(Cc2ccccc2)C1c1ccccc1)c1ccccc1 (configuration not stated)
  outcome: inactive

## CC(C)(C)OC(=O)NC(Cc1ccc([N+](=O)[O-])cc1)C(=O)NC(CCCCNC(=O)OCc1ccccc1)C(=O)ON1C(=O)CCC1=O (configuration not stated)
  EC50: > 200 µM
  IC50: 56.2 µM

## CN(c1ccccc1)S(=O)(=O)c1ccc(Cl)cc1
  EC50: > 200 µM

## CCN1CC2(C)CCC(OC)C34C5CC6CCC(O)(C5C(=O)O6)C(C(O)C23)C14 (configuration not stated)
  outcome: inactive

## Oc1ccc(O)c(CNc2ccc(C(O)C(F)(F)F)cc2)c1 (configuration not stated)
  EC50: > 200 µM
  IC50: 18.6 µM

## CC(=O)N1N=C(c2c(O)ccc3ccccc23)CC1C(=O)c1ccco1 (configuration not stated)
  EC50: > 200 µM
  IC50: 35.5 µM

## COc1cc2cc(C(=O)N3CC(CCl)c4c3cc(N(C)C)c3ccccc43)[nH]c2c(OC)c1OC (configuration not stated)
  EC50: > 0.2 µM
  IC50: 0.0129 µM

## COC(=O)c1cc(Cl)ccc1NC(=O)c1ccc([N+](=O)[O-])cc1
  outcome: inactive

## COC(=O)CCC(C)C1CCC2C3CC[C@@H]4CC(CO)CCC4(C)C3CCC12C (some centres not stated)
  EC50: > 6.76 µM
  IC50: > 6.76 µM

## COc1ccc(C(c2ccccc2C(=O)O)c2ccc(OC)c3ccccc23)c2ccccc12
  EC50: > 41.7 µM
  IC50: 10.7 µM

## C=CCOC(C)n1c(C)cc(=O)n(C(C)OCC=C)c1=O (configuration not stated)
  EC50: > 200 µM
  IC50: > 200 µM

## O=C(/C=C/c1ccc(O)c(O)c1)NC(CO)C(=O)O (configuration not stated)
  EC50: > 200 µM
  IC50: 28.8 µM

## COC(=O)c1ccccc1CC(Cc1ccccc1)C(=O)OC (configuration not stated)
  outcome: inactive

## CCOc1csc([C@H]2CCC3[C@@H]4CC=C5C[C@@H](OC(=O)CCC(=O)O)CC[C@]5(C)C4CC[C@@]32C)n1 (some centres not stated)
  EC50: > 50.1 µM
  IC50: 33.9 µM

## O=c1sc(Nc2ccc3ccccc3c2Cl)nc2ccccc12
  EC50: > 200 µM
  IC50: > 200 µM

## Cn1c(=O)nc2n(-c3ccc(O)cc3)c3ccccc3nc-2c1=O
  outcome: inactive

## CC(=O)OCC1OC(Nc2ccc3nc(C)n(-c4ccccc4)c(=O)c3c2)C(OC(C)=O)C(OC(C)=O)C1OC(C)=O (configuration not stated)
  EC50: > 100 µM
  IC50: 61.7 µM

## COCc1c(CO)cnc(C)c1OC1OC(CO)C(O)C(O)C1O (configuration not stated)
  EC50: > 724 µM
  IC50: > 724 µM
